Where two headings read alike, the source gives them in different places. Ends that are not written are not given here.
What was measured:
[1] = tested on: P815 target cells (H-2d)
[2] = tested on: spleen cells (CTL response to R15K); test: CTL activity of spleen cells after a single id footpad injection (FIG. 4)
[3] = tested on: HIV-1 IIIB infection of human cells; assay type: cell-based
[4] = tested on: HIV-1 infection of primary human T cells; test: HIV-1 infection of primary human T cells, reverse transcriptase assay; assay type: cell-based; settings: peptide at 1 μg/ml; IIIB strain; RT activity after 9 days; FIG. 8
[5] = tested on: 3A9 target cells (H-2k); assay type: in vivo, Balb/c mice; settings: effector cells: No Treatment
[6] = tested on: BALB/c mice; test: Anti-peptide antibody response (ELISA) in BALB/c mice immunized with peptide multimers; assay type: in vivo; parameters: key to Antipeptide Antibody Reactivity to Analogous Peptide: −: cpm values are corrected and categorized according to unrelated antigen response in vitro.; •: Not determined.; +: cpm values are corrected and categorized according to unrelated antigen response in vitro.; ++: cpm values are corrected and categorized according to unrelated antigen response in vitro.; +++: cpm values are corrected and categorized according to unrelated antigen response in vitro.; ++++: cpm values are corrected and categorized according to unrelated antigen response in vitro; settings: for Antipeptide Antibody Reactivity to Analogous Peptide: antibody raised in Balb/C mice, ELISA end point; for anti-peptide antibody response (in words): high molecular weight forms of the peptides
[7] = tested on: PLN cells from A SW × Balb/c F1 mice; test: In vitro proliferation (3H-TdR) of PLN cells from immunized A.SW x BALB/c F1 mice; assay type: in vivo, A.SWXBALB/C F1 mice; parameters: key: −: cpm values are corrected and categorized according to unrelated antigen response in vitro.; •: Not determined.; +: cpm values are corrected and categorized according to unrelated antigen response in vitro.; ++: cpm values are corrected and categorized according to unrelated antigen response in vitro.; +++: cpm values are corrected and categorized according to unrelated antigen response in vitro.; ++++: cpm values are corrected and categorized according to unrelated antigen response in vitro; settings: for In Vitro Proliferation of PLN Cells from A SW × Balb/c F1, GP 160: in vitro antigen: GP 160; for In Vitro Proliferation of PLN Cells from A SW × Balb/c F1, Analogous Peptide: in vitro antigen: analogous peptide
[8] = tested on: PBMCs of immunized rhesus monkeys; test: PBMC proliferation in rhesus monkeys immunized with a mixture of eight synthetic peptides; assay type: in vivo; parameters: key to T-cell Proliferation Responses: —: no detectable response; 1+: poor response; 2+: good response; 3+: better response; 4+: best response; 6+: best response; settings: for T-cell Proliferation Responses: PBMC response to the individual peptide or gp160; for PBMC proliferative responses (in words): three rhesus monkeys, monitored for 32 weeks
Protocol: In the present studies, three rhesus monkeys (#7, #23 and #283C) were immunized subcutaneously with 1 ml (0.1 ml/site) of a mixture of eight synthetic peptides (300·g of each peptide in sterile water) emulsified in complete Freund's adjuvant at 1:1 ratio. […] At 3 and 7 weeks after the primary immunization, two booster injections of the peptide mixture (150·g of each peptide in sterile water) emulsified in incomplete Freund's adjuvant were given to each monkey. Monkey #7 was terminated after […], for health reasons unrelated to the study, while the remaining two monkeys (#283C and #23) received one additional booster injection at 25 weeks.
At two week intervals following the first immunization of each animal, 15 ml of whole heparinized blood was collected by venous puncture. The peripheral blood mononuclear cells (PBMC) were separated by standard ficoll-hypaque centrifugation and employed in proliferation assays. The PBMCs were monitored every two weeks for a period of 32 weeks for proliferative responses against individual peptides and recombinant gp160.

[9] = tested on: PLN cells from B6C3F1 mice; test: In vitro proliferation (3H-TdR) of PLN cells from immunized B6C3 F1 mice; assay type: in vivo; parameters: key to In Vitro Proliferation of PLN Cells from B6C3F1, Analogous Peptide / In Vitro Proliferation of PLN Cells from B6C3F1, GP 160: −: cpm values are corrected and categorized according to unrelated antigen response in vitro.; •: Not determined.; +: cpm values are corrected and categorized according to unrelated antigen response in vitro.; ++: cpm values are corrected and categorized according to unrelated antigen response in vitro.; +++: cpm values are corrected and categorized according to unrelated antigen response in vitro.; ++++: cpm values are corrected and categorized according to unrelated antigen response in vitro; settings: for In Vitro Proliferation of PLN Cells from B6C3F1, GP 160: in vitro antigen: GP 160; for In Vitro Proliferation of PLN Cells from B6C3F1, Analogous Peptide: in vitro antigen: analogous peptide
[10] = disulfide (di-Cys) polymeric form

## CC[C@H](C)[C@H](NC(=O)[C@@H](NC(=O)[C@@H](NC(=O)[C@H](Cc1ccccc1)NC(=O)[C@H](C)NC(=O)[C@H](CCCNC(=N)N)NC(=O)CNC(=O)[C@@H]1CCCN1C(=O)CNC(=O)[C@H](CCCNC(=N)N)NC(=O)[C@H](CCC(N)=O)NC(=O)[C@@H](NC(=O)[C@@H](N)CCCNC(=N)N)[C@@H](C)CC)C(C)C)[C@@H](C)O)C(=O)NCC(=O)N[C@@H](CCCCN)C(=O)O [Peptide R15K]
[1]; effectors from mice immunized with monomeric peptide, FIG. 3A
  effect of anti-CD4 MAbs plus complement, or complement alone, on CTL cytotoxicity: no significant effect
[1]; effectors from mice immunized with monomeric peptide, peptide treated or env expressing targets, FIG. 3A
  effect of anti-CD8 MAbs and rabbit complement on CTL cytotoxicity: abolished the cytotoxicity

## CRIKQIINMWQGVGKAMYA [Peptide C19A]
[2]
  CTL-inducing activity of helper T-cell peptide injected alone: lacked CTL-inducing activity

## GIAIGPGRTLYAREK [Peptide D27, V3 loop peptide, strain NY-5]
[3]
  % RT INHIBITION: 0%

## GIHFGPGQALYTTGI [Peptide D33, V3 loop peptide, strain MAL]
[3]
  % RT INHIBITION: 0%

## HGEFAPGNYPALWSYA [Peptide B105]
[1]; same immunization protocol as Example 5
  in vivo CTL response against unmodified free synthetic peptide: successfully generated

## NNTRKSITKGPGRVIYATGQIIGD [Peptide D26, V3 loop peptide, strain RF]
[3]
  % RT INHIBITION: 72.2%

## RAFVTIGK [Peptide R8K]
[4]
  inhibition of HIV-1 infection of primary human T cells: 66%

## RIHIGPGARFLTTKN [Peptide D39, V3 loop peptide, strain MN(Y-L)]
[3]
  % RT INHIBITION: 73.8%

## RIHIGPGRAFFTTKN [Peptide D40, V3 loop peptide, strain MN(Y-F)]
[3]
  % RT INHIBITION: 62.8%

## RIHIGPGRAFYTTKN [Peptide D24, V3 loop peptide, strain MN]
[3]
  % RT INHIBITION: 22.1%

## RTPTGLGQSLYTTRS [Peptide D38, V3 loop peptide, strain ELI]
[3]
  % RT INHIBITION: 33.7%

## RVTLGPGRVWYTTGE [Peptide D29, V3 loop peptide, strain CDC4]
[3]
  % RT INHIBITION: 0%

## SIHIGPGRAFYATGD [Peptide D30, V3 loop peptide, strain SC]
[3]
  % RT INHIBITION: 54.3%

## SIRIGPGKVFTAKGG [Peptide D31, V3 loop peptide, strain Z3]
[3]
  % RT INHIBITION: 0%

## SISIGPGRAFFATTD [Peptide D34, V3 loop peptide, strain Z321]
[3]
  % RT INHIBITION: 0%

## SITKGPGRVIYATGQ [Peptide D28, V3 loop peptide, strain RF]
[3]
  % RT INHIBITION: 0%

## SIYIGPGRAFHTTGR [Peptide D32, V3 loop peptide, strain SF2]
[3]
  % RT INHIBITION: 0%

## SLSIGPGRAPRTREI [Peptide D25, V3 loop peptide, strain WMJ-3]
[3]
  % RT INHIBITION: 42.4%

## STPIGLGQALYTTRG [Peptide D35, V3 loop peptide, strain Z6]
[3]
  % RT INHIBITION: 30.3%

## STPIGLGQALYTTRI [Peptide D37, V3 loop peptide, strain JY1]
[3]
  % RT INHIBITION: 0%

## TYQRTRALVTG [Peptide B106, free synthetic peptide from Influenza virus nucleoprotein (aa 147-158)]
[5]; target 3A9 (MHC-mis-matched, H-2k), E:T 80:1
  % Specific Lysis: 0%
[5]; target 3A9 (MHC-mis-matched, H-2k), E:T 160:1
  % Specific Lysis: 0%
[5]; target 3A9 + B106, E:T 20:1
  % Specific Lysis: 0%
[5]; target 3A9 + B106, E:T 40:1
  % Specific Lysis: 0%
[5]; target 3A9 + B106, E:T 80:1
  % Specific Lysis: 0%
[5]; target 3A9 + B106, E:T 160:1
  % Specific Lysis: 0%

## VYYGVPVWKEA [Peptide 104]
[6]
  Antipeptide Antibody Reactivity to Analogous Peptide: •
  anti-peptide antibody response (in words): very low to negligible amounts of anti-peptide antibodies
[7]
  In Vitro Proliferation of PLN Cells from A SW × Balb/c F1, GP 160: +
  In Vitro Proliferation of PLN Cells from A SW × Balb/c F1, Analogous Peptide: +++
[8]; Rhesus Monkey #7
  T-cell Proliferation Responses: 4+
[8]; Rhesus Monkey #23
  T-cell Proliferation Responses: 2+
[8]; Rhesus Monkey #283C
  T-cell Proliferation Responses: 4+
[8]
  PBMC proliferative responses (in words): good proliferative responses
[9]
  In Vitro Proliferation of PLN Cells from B6C3F1, GP 160: ++
  In Vitro Proliferation of PLN Cells from B6C3F1, Analogous Peptide: ++++

## YLRDQQLLGIWGC [Peptide 61, gp160 aa 586-598]
[6]
  Antipeptide Antibody Reactivity to Analogous Peptide: −
  anti-peptide antibody response (in words): very low to negligible amounts of anti-peptide antibodies
[6]; [10]
  anti-peptide antibody production (in words): do not stimulate anti-peptide antibody production
[7]
  In Vitro Proliferation of PLN Cells from A SW × Balb/c F1, GP 160: ++
  In Vitro Proliferation of PLN Cells from A SW × Balb/c F1, Analogous Peptide: ++
[8]; Rhesus Monkey #7
  T-cell Proliferation Responses: —
[8]; Rhesus Monkey #23
  T-cell Proliferation Responses: 3+
[8]; Rhesus Monkey #283C
  T-cell Proliferation Responses: 2+
[8]
  PBMC proliferative responses (in words): Two of the three rhesus monkey-derived PBMC preparations also showed good proliferative responses
[9]; [10]
  T cell response against the corresponding peptide and native HIV envelope protein gp160 (in words): strong T cell response
[9]
  In Vitro Proliferation of PLN Cells from B6C3F1, GP 160: +
  In Vitro Proliferation of PLN Cells from B6C3F1, Analogous Peptide: ++

## YNKRKRIHIGPGRAFYTTKNNIGC [Peptide D23, V3 loop peptide, strain MN]
[3]
  % RT INHIBITION: 98.8%
